This passage reports remaining activity results from article PMC8286840, “Identifying SARS-CoV-2 antiviral compounds by screening for small molecule inhibitors of Nsp3 papain-like protease” (Biochemical Journal, 2021).

Assay [1] addresses T1, SARS-CoV-2 PLpro (nsp3 1564–1878) (Severe acute respiratory syndrome coronavirus 2, UniProt P0DTD1). As to the kind of experiment: biochemical. More on the design: FRET-quenched peptide (Pro3) cleavage by PLpro, 10 min pre-incubation, slope over 20 min, normalised to no-compound control. The settings on record: low concentration screen, read-out: % of control remaining.
In assay [2] the target is T1, SARS-CoV-2 PLpro (nsp3 1564–1878). As to the kind of experiment: biochemical. The settings on record: high concentration screen, read-out: % of control remaining. Details: FRET-quenched peptide (Pro3) cleavage by PLpro, 10 min pre-incubation, slope over 20 min, normalised to no-compound control.

Structures can show the parent of a compound that is named as a salt. Where two headings read alike, the source gives them in different places.

For `C[n+]1cc2c3c(ccc2c2ccc4cc5c(cc4c21)OCO5)OCO3` [Sanguinarine chloride], the remaining activity at 1.25 µM in assay [1] (Well no.=1458) came out at 87.2%. Further, the remaining activity at 3.75 µM in assay [2] (Well no.=1458) is 86.2%.

Take `C[n+]1cc2c3c(ccc2c2ccc4cc5c(cc4c21)OCO5)OCO3` [Sanguinarine]: the remaining activity at 1.25 µM in assay [1] (Well no.=3779) worked out at 94.3%. Also, the remaining activity at 3.75 µM in assay [2] (Well no.=3779) is 90.1%.

Regarding `CC1=C2[C@H]3OC(=O)[C@@H](C)[C@@H]3CC[C@@]2(C)C=CC1=O` [Santonin], the remaining activity at 1.25 µM in assay [1] (Well no.=3717) amounted to 90%. Moreover, in assay [2] (Well no.=3717), the remaining activity at 3.75 µM worked out at 95.8%.

With `CCCCCCCCCCCCCCCC(=O)Nc1ccn([C@@H]2O[C@H](CO)[C@@H](O)[C@@H]2C#N)c(=O)n1` [Sapacitabine], the remaining activity at 1.25 µM in assay [1] (Well no.=7908) amounted to 98.8%. In assay [2] (Well no.=7908), the remaining activity at 3.75 µM was found to be 102%.

`O=C(O)c1cn(-c2ccc(F)cc2)c2cc(N3CCNCC3)c(F)cc2c1=O` [Sarafloxacin]: in assay [1] (Well no.=2241), the remaining activity at 1.25 µM was found to be 101%. Moreover, the remaining activity at 3.75 µM in assay [2] (Well no.=2241) turned out to be 101%.

As for `CNCC(=O)O` [Sarcosine], in assay [1] (Well no.=6727), the remaining activity at 1.25 µM stood at 103%. Further, the remaining activity at 3.75 µM in assay [2] (Well no.=6727) came out at 102%.

Consider `COc1cccc(CCc2ccccc2OCC(CN(C)C)OC(=O)CCC(=O)O)c1` (stereo not shown) [Sarpogrelate (hydrochloride)], for which the remaining activity at 1.25 µM in assay [1] (Well no.=6228) was found to be 106%. Also, the remaining activity at 3.75 µM in assay [2] (Well no.=6228) was 96.1%.

For `C[C@H]1CC[C@@]2(OC1)O[C@H]1C[C@H]3[C@@H]4CC[C@@H]5C[C@@H](O)CC[C@]5(C)[C@H]4CC[C@]3(C)[C@H]1[C@@H]2C` [Sarsasapogenin], the remaining activity at 1.25 µM in assay [1] (Well no.=3102) is 95%. Further, the remaining activity at 3.75 µM in assay [2] (Well no.=3102) came to 92.8%.

For `N#C[C@@H]1C[C@@H]2C[C@@H]2N1C(=O)[C@@H](N)C12CC3CC(CC(O)(C3)C1)C2` [Saxagliptin hydrate], the remaining activity at 1.25 µM in assay [1] (Well no.=8254) is 104%. In addition, the remaining activity at 3.75 µM in assay [2] (Well no.=8254) was 102%.

Take `COc1cc2c(c(OC)c1OC)-c1c(cc(OC)c(OC)c1OC)C[C@](C)(O)[C@@H](C)C2` [Schisandrin]: the remaining activity at 1.25 µM in assay [1] (Well no.=5408) was determined as 95.6%. In addition, the remaining activity at 3.75 µM in assay [2] (Well no.=5408) was 101%.

`C=C[C@](C)(O)CC[C@@H]1[C@@]2(C)CCCC(C)(C)[C@@H]2CC[C@@]1(C)O` [Sclareol]: the remaining activity at 1.25 µM in assay [1] (Well no.=3388) stood at 91.2%. In addition, the remaining activity at 3.75 µM in assay [2] (Well no.=3388) turned out to be 96.1%.

Consider `CC[C@H](C)/C=C(C)/C=C/C1=CC2=C(Cl)C(=O)[C@](C)(OC(C)=O)C(=O)C2=CO1` [Sclerotiorin], for which the remaining activity at 1.25 µM in assay [1] (Well no.=3604) amounted to 100%. Besides, in assay [2] (Well no.=3604), the remaining activity at 3.75 µM came to 98.6%.

Consider `CN1[C@@H]2CC(O)C[C@H]1[C@@H]1O[C@@H]12` (stereo partly shown) [Scopine (hydrochloride)], for which, in assay [1] (Well no.=6555), the remaining activity at 1.25 µM worked out at 94.2%. Also, the remaining activity at 3.75 µM in assay [2] (Well no.=6555) came to 101%.

Regarding `CN1[C@@H]2CC(O)C[C@H]1[C@@H]1O[C@@H]12` (stereo partly shown) [Scopine HCl], the remaining activity at 1.25 µM in assay [1] (Well no.=4914) stood at 87.1%. In addition, the remaining activity at 3.75 µM in assay [2] (Well no.=4914) is 84%.

In the case of `CN1[C@@H]2CC(O)C[C@H]1[C@@H]1O[C@@H]12` (stereo partly shown) [Scopine], the remaining activity at 1.25 µM in assay [1] (Well no.=4910) turned out to be 95.8%. In assay [2] (Well no.=4910), the remaining activity at 3.75 µM came out at 92.3%.

With `CN1[C@@H]2C[C@@H](OC(=O)[C@H](CO)c3ccccc3)C[C@H]1[C@@H]1O[C@@H]12` [Scopolamine (hydrobromide)], in assay [1] (Well no.=6670), the remaining activity at 1.25 µM stood at 102%. Moreover, the remaining activity at 3.75 µM in assay [2] (Well no.=6670) was found to be 105%.

For the compound `CCCC[N+]1(C)[C@H]2CC(OC(=O)C(CO)c3ccccc3)C[C@H]1[C@H]1O[C@H]12` (stereo partly shown) [Scopolamine N-butyl], in assay [1] (Well no.=2243), the remaining activity at 1.25 µM is 95%. In addition, the remaining activity at 3.75 µM in assay [2] (Well no.=2243) came to 91.9%.

For `CCCC[N+]1(C)[C@@H]2C[C@@H](OC(=O)[C@H](CO)c3ccccc3)C[C@H]1[C@@H]1O[C@@H]12` (stereo partly shown) [Scopolamine N-butylbromide], in assay [1] (Well no.=3355), the remaining activity at 1.25 µM came to 99.9%. The remaining activity at 3.75 µM in assay [2] (Well no.=3355) came to 98.9%.

In the case of `CN1[C@@H]2C[C@@H](OC(=O)[C@H](CO)c3ccccc3)C[C@H]1[C@@H]1O[C@@H]12` [Scopolamine], the remaining activity at 1.25 µM in assay [1] (Well no.=2245) was 100%. Moreover, the remaining activity at 3.75 µM in assay [2] (Well no.=2245) was determined as 100%.

In the case of `COc1cc2ccc(=O)oc2cc1O` [Scopoletin], the remaining activity at 1.25 µM in assay [1] (Well no.=3461) came to 103%. The remaining activity at 3.75 µM in assay [2] (Well no.=3461) came to 102%.

On to `O=C1C(C2=C3c4ccccc4NC3/C(=C\c3ccc(O)cc3)C2=O)=C2C(=Nc3ccccc32)/C1=C\c1ccc(O)cc1` (stereo not shown) [Scytonemin, Lyngbya sp.], for which, in assay [1] (Well no.=2669), the remaining activity at 1.25 µM was found to be 96.6%. Besides, the remaining activity at 3.75 µM in assay [2] (Well no.=2669) came out at 101%.

`C[Se]C[C@H](N)C(=O)O` [Se-(methyl)selenocysteine hydrochloride]: in assay [1] (Well no.=1124), the remaining activity at 1.25 µM amounted to 97.3%. Moreover, in assay [2] (Well no.=1124), the remaining activity at 3.75 µM is 95.6%.

With `Cc1ncc([N+](=O)[O-])n1CC(C)O` (stereo not shown) [Secnidazole], the remaining activity at 1.25 µM in assay [1] (Well no.=2247) turned out to be 99.7%. Further, the remaining activity at 3.75 µM in assay [2] (Well no.=2247) amounted to 97.7%.

Take `CO[C@@H](C[C@@H]1CC[C@@H](C)[C@](O)(C(=O)C(=O)N2CCCC[C@H]2C(=O)O)O1)/C(C)=C/C=C/C=C/[C@@H](C)C[C@@H](C)C(=O)[C@H](OC)[C@H](O)/C(C)=C/[C@@H](C)C(=O)/C=C/[C@H](C)C[C@@H]1CC[C@@H](O)[C@H](OC)C1` [Seco Rapamycin (sodium salt)]: the remaining activity at 1.25 µM in assay [1] (Well no.=7642) came out at 97.4%. Also, the remaining activity at 3.75 µM in assay [2] (Well no.=7642) turned out to be 95.9%.

`O=C1C=C2C=C[C@@H]3C[C@@]2(O1)[C@H]1CCCCN31` [Securinine]: the remaining activity at 1.25 µM in assay [1] (Well no.=3749) amounted to 99.6%. The remaining activity at 3.75 µM in assay [2] (Well no.=3749) was 100%.

In the case of `CCCCC1OC(=O)C2=CCCCC21` (stereo not shown) [Sedanolide], the remaining activity at 1.25 µM in assay [1] (Well no.=3751) was found to be 92.6%. Further, the remaining activity at 3.75 µM in assay [2] (Well no.=3751) was determined as 98.7%.

As for `CC(C)[C@@H]1NC(=O)[C@H](CCCCN)NC(=O)[C@@H](Cc2c[nH]c3ccccc23)NC(=O)[C@H](Cc2ccc(O)cc2)NC(=O)[C@H](C)N(C)C(=O)[C@H](Cc2ccccc2)NC1=O` [Seglitide], the remaining activity at 1.25 µM in assay [1] (Well no.=1452) came out at 97%. Besides, in assay [2] (Well no.=1452), the remaining activity at 3.75 µM was 97.2%.

For the compound `C[Se]CC[C@H](N)C(=O)O` [Selenomethionine], in assay [1] (Well no.=4141), the remaining activity at 1.25 µM stood at 97.8%. In addition, the remaining activity at 3.75 µM in assay [2] (Well no.=4141) was 98.7%.

Take `CC(C)[C@H](O)C(=O)N[C@@H](C)C(=O)N[C@@H]1C(=O)N(C)CCc2ccccc21` [Semagacestat (LY450139)]: in assay [1] (Well no.=4614), the remaining activity at 1.25 µM was determined as 102%. In addition, in assay [2] (Well no.=4614), the remaining activity at 3.75 µM was 101%.

Turning to `NNC(N)=O` [Semicarbazide hydrochloride], the remaining activity at 1.25 µM in assay [1] (Well no.=1406) was determined as 99.7%. For the same compound, in assay [2] (Well no.=1406), the remaining activity at 3.75 µM is 99.4%.

With `C/C=C1/C[C@@H](C)[C@@](C)(O)C(=O)OCC2=CCN3CC[C@@H](OC1=O)[C@@H]23` [Senecionine], the remaining activity at 1.25 µM in assay [1] (Well no.=3464) came to 98.3%. Moreover, the remaining activity at 3.75 µM in assay [2] (Well no.=3464) amounted to 99.1%.

On to `C[C@H](O)C(=O)C1=Nc2c(nc(N)[nH]c2=O)NC1` [Sepiapterin], for which the remaining activity at 1.25 µM in assay [1] (Well no.=1183) came to 99.7%. In addition, the remaining activity at 3.75 µM in assay [2] (Well no.=1183) came out at 96.3%.
